Test results reported in patent US8778923B2, “GLP-1 receptor modulators” (Receptos, Inc., priority 2011, dated 2014).

What follows are molecules tested against T1, GLP-1R (Homo sapiens, UniProt P43220) (assay: EC20 GLP-1(9-36) PAM cAMP assay: dose response of compound in the presence of fixed concentration of GLP-1(9-36)). Details: GLP-1R CRE-bla CHO-K1 cells, compound dose response in presence of fixed concentration of GLP-1(9-36).
T1 construct: host or cells: CRE-bla CHO-K1
Format: cell-based
Outline: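 GLP-1R CRE-bla CHO-K1 cells in HBSS/10 mM Hepes/0.1% BSA pH 7.4 with IBMX got a 12-point compound dose response plus fixed EC20 GLP-1(9-36), 30 min at 37 °C. cAMP measured by HitHunter luminescence against a standard curve; EC50 and Emax by non-linear regression.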

T1 sequence (P43220 24-463): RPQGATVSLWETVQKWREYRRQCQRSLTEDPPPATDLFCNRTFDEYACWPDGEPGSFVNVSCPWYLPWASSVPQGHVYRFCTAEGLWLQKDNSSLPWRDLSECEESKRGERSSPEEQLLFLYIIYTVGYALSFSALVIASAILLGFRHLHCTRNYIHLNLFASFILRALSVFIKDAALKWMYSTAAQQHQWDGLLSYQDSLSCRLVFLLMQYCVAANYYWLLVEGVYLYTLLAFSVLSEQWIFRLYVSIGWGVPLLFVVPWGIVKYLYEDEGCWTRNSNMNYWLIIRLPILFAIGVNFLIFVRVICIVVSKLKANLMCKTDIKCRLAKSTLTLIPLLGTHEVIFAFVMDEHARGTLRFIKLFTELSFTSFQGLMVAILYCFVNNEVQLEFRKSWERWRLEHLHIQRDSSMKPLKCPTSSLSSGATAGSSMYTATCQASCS
T1 sequence (P01275 100-127 partner limits assumed): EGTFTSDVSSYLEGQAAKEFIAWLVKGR

EC50	SMILES
2500 to 5000 nM	CCCCCCCOc1ccc(-c2nc(-c3ccc(C[C@H](NC(=O)c4ccc(C(C)(C)C)cc4)C(=O)O)cc3)no2)cn1 [Compound 51]
< 800 nM	CCCCCCCOc1ccc(-c2cnc(-c3ccc(C[C@H](NC(=O)c4ccc(C(C)C)cc4)C(=O)N[C@H](Cc4cnc[nH]4)C(=O)O)cc3)nc2)cc1 [Compound 316]
800 to 2500 nM	CCCCCCCOc1ccc(-c2cnc(-c3ccc(C[C@H](NC(=O)c4ccc(CO)cc4)C(=O)O)cc3)nc2)cc1 [Compound 126]
800 to 2500 nM	CCCCCCCOc1ccc(-c2csc(-c3ccc(C[C@H](NC(=O)c4ccc(C(C)(C)C)cc4)C(=O)O)cc3)n2)cc1 [Compound 79]
800 to 2500 nM	CCCCCCCOc1ccc(-c2cnc(-c3ccc(C[C@H](NC(=O)c4coc(C(C)C)n4)C(=O)O)cc3)nc2)cc1 [Compound 132]
800 to 2500 nM	CCCCCCCOc1ccc(-c2cnc(-c3ccc(C[C@H](NC(=O)c4ccc(C(C)C)cc4)C(=O)N[C@H](CC(C)C)C(=O)O)cc3)nc2)cc1 [Compound 313]
5000 to 10000 nM	CCCCCCCCCCOc1ccc(-c2cnc(-c3ccc(C[C@H](NC(=O)c4ccc(C(C)(C)C)s4)C(=O)O)cc3)nc2)cc1 [Compound 249, (S)-2-(5-(tert-butyl)thiophene-2-carboxamido)-3-(4-(5-(4-(decyloxy)phenyl)-pyrimidin-2-yl)phenyl)propanoic acid]
800 to 2500 nM	CCCCCCCOc1ccc(-c2nc(-c3ccc(C[C@H](NC(=O)c4ccc(C(C)(C)C)cc4)C(=O)O)cc3)ns2)cc1 [Compound 84]
800 to 2500 nM	CC(C)Cc1ccc(C(=O)N[C@@H](Cc2ccc(-c3ncc(-c4ccc(C(C)(C)C)cc4)cn3)cc2)C(=O)O)cc1 [Compound 163]
2500 to 5000 nM	CC(C)(C)c1ccc(C(=O)N[C@@H](Cc2ccc(-c3ncc(-c4ccc(F)cc4)cn3)cc2)C(=O)O)cc1 [Compound 206]
800 to 2500 nM	CC(C)(C)c1ccc(C(=O)N[C@@H](Cc2ccc(-c3noc(-c4ccc(-c5ccccc5C#N)cc4)n3)cc2)C(=O)O)cc1 [Compound 31]
800 to 2500 nM	CC(C)c1ccc(C(=O)N[C@@H](Cc2ccc(-c3ncc(-c4ccc(C(C)(C)C)cc4)cn3)cc2)C(=O)O)cc1 [Compound 161]
800 to 2500 nM	COc1cc(C(F)(F)F)ccc1-c1ccc(-c2nc(-c3ccc(C[C@H](NC(=O)c4ccc(C(C)(C)C)cc4)C(=O)O)cc3)no2)cc1 [Compound 27]
< 800 nM	CCCCCCCOc1ccc(-c2cnc(-c3ccc(C[C@@H](NC(=O)c4ccc(C(C)(C)C)s4)C(=O)N[C@@H](CO)C(=O)O)cc3)nc2)cc1 [Compound 378]
800 to 2500 nM	CCCCCCCOc1ccc(N2CCN(c3ccc(C[C@H](NC(=O)c4ccc(C(C)(C)C)cc4)C(=O)O)cc3)CC2)cc1 [Compound 267]
2500 to 5000 nM	CC(C)(C)c1ccc(-c2cnc(-c3ccc(C[C@H](NC(=O)c4ccc(C(C)(C)C)s4)C(=O)NC(CN)C(=O)O)cc3)nc2)cc1 (some centres unmarked) [Compound 366]
5000 to 10000 nM	CCN(CC)c1ccc(-c2nc(-c3ccc(C[C@H](NC(=O)c4ccc(C(C)(C)C)cc4)C(=O)O)cc3)no2)cc1 [Compound 48]
800 to 2500 nM	CCCCCCCOc1ccc(-c2cnc(-c3ccc(C[C@H](NC(=O)c4ccc(O)cc4)C(=O)O)cc3)nc2)cc1 [Compound 114, (S)-3-(4-(5-(4-(heptyloxy)phenyl)pyrimidin-2-yl)phenyl)-2-(4-hydroxybenzamido)propanoic acid]
800 to 2500 nM	CC(C)(C)Cc1ccc(C(=O)N[C@@H](Cc2ccc(-c3ncc(-c4ccc(C(C)(C)C)cc4)cn3)cc2)C(=O)O)cc1 [Compound 172]

EC50	SMILES
< 800 nM	CCCCCCCCCOc1ccc(-c2cnc(-c3ccc(C[C@H](NC(=O)c4ccc(C(C)(C)C)s4)C(=O)O)cc3)nc2)cc1 [Compound 260]
800 to 2500 nM	CCCCCCCOc1ccc(-c2cnc(-c3ccc(C[C@H](NC(=O)c4ccc(C(C)(C)C)cc4)C(=O)O)cc3)cc2C(F)(F)F)cc1 [Compound 295]
5000 to 10000 nM	CC(C)(C)c1ccc(C(=O)NC(C(=O)O)c2ccc(-c3noc(-c4ccc(N5CCCCC5)cc4)n3)cc2)cc1 (centres unmarked) [Compound 72]
2500 to 5000 nM	CCOc1ccc(-c2cnc(-c3ccc(C[C@H](NC(=O)c4ccc(C(C)(C)C)cc4)C(=O)O)cc3)nc2)cc1 [Compound 221]
5000 to 10000 nM	CCCCCCOC1=NCc2cc(-c3cnc(-c4ccc(C[C@H](NC(=O)c5ccc(C(C)(C)C)cc5)C(=O)O)cc4)nc3)ccc21 [Compound 256]
2500 to 5000 nM	CN(C)c1ccc(-c2nc(-c3ccc(C[C@H](NC(=O)c4ccc(C(C)(C)C)cc4)C(=O)O)cc3)no2)cc1 [Compound 47]
800 to 2500 nM	CC(C)(C)c1ccc(C(=O)N[C@@H](Cc2ccc(-c3noc(-c4ccc5[nH]ccc5c4)n3)cc2)C(=O)O)cc1 [Compound 64]
800 to 2500 nM	CC(C)(C)c1ccc(-c2cnc(-c3ccc(C[C@@H](NC(=O)c4ccc(C(C)(C)C)s4)C(=O)O)cc3)nc2)cc1 [Compound 182]
800 to 2500 nM	CCCCCOc1ccc(-c2cnc(-c3ccc(C[C@H](NC(=O)c4ccc(C(C)(C)C)cc4)C(=O)O)cc3)nc2)cc1 [Compound 224]
< 800 nM	CCCCCCCOc1ccc(-c2cnc(-c3ccc(C[C@H](NC(=O)c4ccc(C(C)(C)C)s4)C(=O)N[C@@H](CC(N)=O)C(=O)O)cc3)nc2)cc1 [Compound 321]
800 to 2500 nM	CCCCCCCOc1ccc(-c2cnc(-c3ccc(C[C@H](NC(=O)c4ccc(C(C)(C)C)cc4)C(=O)O)cc3)cc2C)cc1 [Compound 294]
2500 to 5000 nM	CC(C)(C)c1ccc(C(=O)N[C@@H](Cc2ccc(-c3noc(-c4ccc(-c5cccc(Cl)c5)cc4)n3)cc2)C(=O)O)cc1 [Compound 17]
800 to 2500 nM	CCCCCCCCCCCCOc1ccc(-c2cnc(-c3ccc(C[C@H](NC(=O)c4ccc(C(C)(C)C)s4)C(=O)O)cc3)nc2)cc1 [Compound 250]
5000 to 10000 nM	CC(C)(C)c1ccc(C(=O)N[C@@H](Cc2ccc(-c3ncc(OCc4ccccc4)cn3)cc2)C(=O)O)cc1 [Compound 258]
< 800 nM	CCCCCCCOc1ccc(-c2cnc(-c3ccc(C[C@H](NC(=O)c4ccc(C(C)(C)C)s4)C(=O)NC(CC(=O)O)c4ccc(O)cc4)cc3)nc2)cc1 (some centres unmarked) [Compound 350]
800 to 2500 nM	CCCCCCCOc1ccc(-c2cnc(-c3ccc(C[C@H](NC(=O)c4cc5c(s4)CCC(C)C5)C(=O)O)cc3)nc2)cc1 (some centres unmarked) [Compound 151]
800 to 2500 nM	CCCCCCCOc1ccc(-c2cnc(-c3ccc(C[C@H](NC(=O)c4ccc(C(C)(C)C)s4)C(=O)NCC(=O)O)cc3)cn2)cc1 [Compound 284]
800 to 2500 nM	CC(C)(C)c1ccc(C(=O)N[C@@H](Cc2ccc(-c3noc(-c4ccc(C(F)(F)F)cc4)n3)cc2)C(=O)O)cc1 [Compound 11]
800 to 2500 nM	CCCCCCCOc1ccc(-c2cnc(-c3ccc(C[C@H](NC(=O)c4ccc(S(=O)(=O)C(C)C)cc4)C(=O)O)cc3)nc2)cc1 [Compound 122]

EC50	SMILES
2500 to 5000 nM	CCCCCCCOc1ccc(-c2cnc(-c3ccc(C[C@H](NS(=O)(=O)c4ccc(C)cc4)C(=O)O)cc3)nc2)cc1 [Compound 187]
2500 to 5000 nM	CCCCCCCOc1ccc(-c2cnc(-c3ccc(C[C@H](NS(=O)(=O)c4ccc(C(F)(F)F)cc4)C(=O)O)cc3)nc2)cc1 [Compound 190]
800 to 2500 nM	CC(C)(C)c1ccc(-c2cnc(-c3ccc(C[C@H](NC(=O)c4ccc(C(C)(C)C)s4)C(=O)O)cc3)cn2)cc1 [Compound 282]
< 800 nM	CCCCCCCOc1ccc(-c2cnc(-c3ccc(C[C@H](NC(=O)c4cc(C(C)C)no4)C(=O)O)cc3)nc2)cc1 [Compound 130]
5000 to 10000 nM	CCCCCCCOc1ccc(-c2nc(-c3ccc(C[C@H](NC(=O)c4ccc(C(C)(C)C)cc4)C(=O)NS(C)(=O)=O)cc3)no2)cc1 [Compound 69]
800 to 2500 nM	CCCCCCCOc1ccc(N2CCC(Nc3ccc(C[C@H](NC(=O)c4ccc(C(C)(C)C)cc4)C(=O)O)cc3)CC2)cc1 [Compound 263]
800 to 2500 nM	CCCCCCCOc1ccc(-c2cnc(-c3ccc(C[C@H](NS(=O)(=O)c4ccccc4)C(=O)O)cc3)nc2)cc1 [Compound 184]
2500 to 5000 nM	CC(=O)Nc1ccc(-c2nc(-c3ccc(C[C@H](NC(=O)c4ccc(C(C)(C)C)cc4)C(=O)O)cc3)no2)cc1 [Compound 44]
< 800 nM	CCCCCCCOc1ccc(-c2cnc(-c3ccc(C[C@H](NC(=O)c4ccc(C(C)(C)C)s4)C(=O)N4CCC(C(=O)O)C4)cc3)nc2)cc1 (some centres unmarked) [Compound 344]
2500 to 5000 nM	CC(C)(C)c1ccc(C(=O)N[C@@H](Cc2ccc(-c3noc(-c4ccc(N5CCCCC5)cc4)n3)cc2)C(=O)NCC(=O)O)cc1 [Compound 68]
5000 to 10000 nM	CCCCCCCOc1ccc(-c2cnc(-c3ccc(C[C@H](NC(=O)Cc4ccccc4)C(=O)O)cc3)nc2)cc1 [Compound 88]
2500 to 5000 nM	Cc1ccc(-c2cnc(-c3ccc(C[C@H](NC(=O)c4ccc(C(C)(C)C)cc4)C(=O)O)cc3)nc2)cc1C [Compound 227]
< 800 nM	CCCCCCCOc1ccc(-c2cnc(-c3ccc(C[C@H](NC(=O)c4ccc(C(C)(C)C)s4)C(=O)N4CC[C@H](C(=O)O)C4)cc3)nc2)cc1 [Compound 349]
800 to 2500 nM	CCCCCCCOc1ccc(-c2cnc(-c3ccc(C[C@H](NC(=O)c4ccc(C(C)(C)C)cc4OC)C(=O)O)cc3)nc2)cc1 [Compound 106]
800 to 2500 nM	CCCCCCCOc1ccc(-c2cnc(-c3ccc(C[C@H](NC(=O)c4ccc(C(C)(C)C)s4)C(=O)N[C@@H](CCC(=O)O)C(=O)O)cc3)nc2)cc1 [Compound 330]
5000 to 10000 nM	CCCCCCCOc1ccc(-c2nc(-c3ccc(C[C@H](NC(=O)c4ccc(C(C)(C)C)cc4)C(=O)NC(C)(C)C(=O)O)cc3)no2)cc1 [Compound 70]
< 800 nM	CCCCCCCOc1ccc(-c2cnc(-c3ccc(C[C@H](NC(=O)c4ncc(C(C)(C)C)s4)C(=O)O)cc3)nc2)cc1 [Compound 142]
2500 to 5000 nM	CCCCCCCOc1ccc(-c2cnc(-c3ccc(C[C@H](NC(=O)c4ccc(C(C)(C)C)cc4)C(=O)O)cc3)nc2N(C)C)cc1 [Compound 293]
